Reference: patent US10300026B2, “Use of dihydroxyacetone in preparation of anti-cancer medicaments” (priority 2015, dated 2019)
Like-named read-outs stand apart in the source and are kept apart here.

Experiments:
SH-SY5Y = assay: CellTiter-Glo cell viability, SH-SY5Y (human neuroblastoma cell); type: cell-based
Experimental: (§1) 15 g of the commercially available 1,3-dihydroxyacetone in the solid powder form was added into 100 mL of 5% glucose (infusion bottle), then filled into 100 bottles.
(§2) After digesting the cells and counting (counting suspended cells directly), the cells were diluted to 1.25×10^5 cells/ml, inoculated into a 384-well plate (5000 cells/well) with 40 μl per well, centrifuged at 1500 rpm for 1 min, placed into the incubator and incubated overnight.
(§3) The medicaments were diluted in gradient with a 5% glucose solution to 5×, respectively. Each well was dosed with 10 μl medicament, with 4 wells (n=4) for each concentration. The cell viability was measured with Luminescence Cell Viability Assay kit after incubating for 72 hours in an incubator.
(§4) CellTiter-Glo reagent was added into each well, the volume of which is the same as that of medium. It was shaked on a shaker for 5 min, centrifuged at 1500 rpm for 1 min, and incubated in the dark at room temperature for 15 min. Then the chemiluminescence was detected with BMG PHERAstar.
(§5) The cell viability was calculated by using the following formula: Cell viability (Viability %)=100%×(LUMsample to be measured−LUMblank)/(LUMsolvent control−LUMblank)
(§6) The curve of Log[concentration] versus cell viability was fitted using Prism 6 to calculate IC50 of sample for each cell line.

BEL-7402 = assay: CellTiter-Glo cell viability, BEL-7402 (human hepatoma cell line); type: cell-based
Experimental: as §1, §2, §3, §4, §5, §6

SMMC-7721 = assay: CellTiter-Glo cell viability, SMMC-7721 (human hepatoma cell line); type: cell-based
Experimental: as §1, §2, §3, §4, §5, §6

SW480 = assay: CellTiter-Glo cell viability, SW480 (human colorectal cancer cell); type: cell-based
Experimental: as §1, §2, §3, §4, §5, §6

T24 = assay: CellTiter-Glo cell viability, T24 (human bladder transitional cell carcinoma cell); type: cell-based
Experimental: as §1, §2, §3, §4, §5, §6

A549 = assay: CellTiter-Glo cell viability, A549 (human non-small cell lung cancer cell); type: cell-based
Experimental: as §1, §2, §3, §4, §5, §6

TT = assay: CellTiter-Glo cell viability, TT (human thyroid cancer cell); type: cell-based; details: 72 hours
Experimental: as §1, §2, §3, §4, §5, §6

Jurkat = assay: CellTiter-Glo cell viability, Jurkat (human T lymphoblastic leukemia cell); type: cell-based
Experimental: as §1, §2, §3, §4, §5, §6

A431 = assay: CellTiter-Glo cell viability, A431 (human cutaneous squamous cell carcinoma); type: cell-based
Experimental: as §1, §2, §3, §4, §5, §6

A375 = assay: CellTiter-Glo cell viability, A375 (human malignant melanoma cell); type: cell-based
Experimental: as §1, §2, §3, §4, §5, §6

A673 = assay: CellTiter-Glo cell viability, A673 (human rhabdomyoma cell); type: cell-based
Experimental: as §1, §2, §3, §4, §5, §6

HCCLM3 = assay: CellTiter-Glo cell viability, HCCLM3 (human high metastatic hepatoma cell); type: cell-based
Experimental: as §1, §2, §3, §4, §5, §6

A2780 = assay: CellTiter-Glo cell viability, A2780 (human ovarian cancer cell line); type: cell-based
Experimental: as §1, §2, §3, §4, §5, §6

DU145 = assay: CellTiter-Glo cell viability, DU145 (human prostate cancer cell); type: cell-based
Experimental: as §1, §2, §3, §4, §5, §6

FaDu = assay: CellTiter-Glo cell viability, FaDu (human pharyngeal squamous cell); type: cell-based
Experimental: as §1, §2, §3, §4, §5, §6

KB = assay: CellTiter-Glo cell viability, KB (human oral cancer cell line); type: cell-based
Experimental: as §1, §2, §3, §4, §5, §6

Calu-6 = assay: CellTiter-Glo cell viability, Calu-6 (human degenerative cancer cell); type: cell-based
Experimental: as §1, §2, §3, §4, §5, §6

SW620 = assay: CellTiter-Glo cell viability, SW620 (human colon cancer cell); type: cell-based
Experimental: as §1, §2, §3, §4, §5, §6

Caki-1 = assay: CellTiter-Glo cell viability, Caki-1 (human renal clear cell carcinoma skin metastatic cell); type: cell-based
Experimental: as §1, §2, §3, §4, §5, §6

H460 = assay: CellTiter-Glo cell viability, H460 (human large cell lung cancer cell line); type: cell-based
Experimental: as §1, §2, §3, §4, §5, §6

HT29 = assay: CellTiter-Glo cell viability, HT29 (human colon cancer cell line); type: cell-based
Experimental: as §1, §2, §3, §4, §5, §6

TF1-α = assay: CellTiter-Glo cell viability, TF1-α (human erythroleukemia cell); type: cell-based
Experimental: as §1, §2, §3, §4, §5, §6

[1] = test system: human large cell lung cancer H460 cell transplantation tumor; assay: H460 cell transplantation tumor model in naked mice; type: in vivo, Balb/c-nude naked mice; details: for TV (mm^3) D1 / Body weight (g) D1: D1 (first day of administration); for Effect of tumor inhibition: vs blank; for Tumor Weight TW: tumors taken out at sacrifice on 22th day; for Tumor Weight Inhibition Rate IR (%): vs blank control group tumor weight
Experimental: Naked mice were subcutaneously inoculated with H460 cells (human large cell lung cancer cell line). When tumors grew to about 100 mm^3, 36 naked mice with similar tumor volume and good shape were selected from 70 naked mice, divided into 6 groups with 6 animals in each group;
Cisplatin: 4 mg/kg, volume of injection was 0.1 mL/10 g, i.p, administration once every 5 days, three weeks in total;
Cisplatin group: 4 mg/kg, volume of injection was 0.1 mL/10 g, i.p, administration once every 5 days, three weeks in total;
Blank group: 0.9% sodium chloride injection, mode of administration was same as DHA group.
3.1.3 Naked mice were inoculated subcutaneously at the right side of back, 0.1 mL/mouse, i.e. each naked mouse was inoculated 2×10^6 cells;
3.2.1 When tumors grew to about 100 mm^3, 36 naked mice with similar tumor volume and good shape were selected from 70 naked mice, and divided into 6 groups with 6 animals in each group.
The mixture was refrigerated at 4° C. when not used. […] 4 mL of 0.6 mg/mL cisplatin solution were measured and added with 2.0 mL physiological saline to formulate a 0.4 mg/mL (4 mg/kg) cisplatin solution. The solution was refrigerated at 4° C. when not used.
The tumor volume and body weight were measured three times per week from the first day of administration. Naked mice were sacrificed on 22th day. The tumors were taken out, weighed and photographed. The tumor inhibition rate was calculated.
The calculation formula is: TV=½×a×b^2, where a and b represents length and width, respectively.
The calculation formula is: RTV=TVt/TV1, where TV1 is a tumor volume when being caged and administrated (i.e., d1), TVt is a tumor volume at each measurement.
The calculation formula is: […]
TRTV: RTV of treatment group; CRTV: RTV of blank control group.
TTW: tumor weight of treatment group; CTW: tumor weight of blank control group; TW: tumor weight.

[2] = H460 tumor naked mice, cisplatin 4 mg/kg i.p. once every 5 days, DHA p.o. 0.1 mL/10 g bid
[3] = D20, H460 tumor naked mice, cisplatin 4 mg/kg i.p. once every 5 days, DHA p.o. 0.1 mL/10 g bid
[4] = cisplatin 4 mg/kg i.p. once every 5 days, DHA p.o. 0.1 mL/10 g bid
[5] = Homo sapiens, 72 h, read-out: IC50 calculated based on the concentration of dihydroxyacetone

Compound: N.N.[Cl][Pt][Cl] [DDP, cis-diammine platinum dichloride, reference compound]
- IC50 (SH-SY5Y; 72 hours, n=4, read-out: IC50): 2.89 µM
- IC50 (BEL-7402; BEL-7402, 72 hours, n=4, read-out: IC50): 5.37 µM
- IC50 (SMMC-7721; SMMC-7721, 72 hours, n=4, read-out: IC50): 6.19 µM
- IC50 (SW480; SW480, 72 hours, n=4, read-out: IC50): 16.7 µM
- IC50 (T24; T24, 72 hours, n=4, read-out: IC50): 6.22 µM
- IC50 (A549; A549, 72 hours, n=4, read-out: IC50): 4.1 µM
- IC50 (TT; n=4, read-out: IC50): 9.72 µM
- IC50 (Jurkat; 72 hours, n=4, read-out: IC50): 0.66 µM
- IC50 (A431; A431, 72 hours, n=4, read-out: IC50): 9.29 µM
- IC50 (A375; A375, 72 hours, n=4, read-out: IC50): 8.25 µM
- IC50 (A673; A673, 72 hours, n=4, read-out: IC50): 1.11 µM
- IC50 (HCCLM3; HCCLM3, 72 hours, n=4, read-out: IC50): 183 µM
- IC50 (A2780; A2780, 72 hours, n=4, read-out: IC50): 32.2 µM
- IC50 (DU145; DU145, 72 hours, n=4, read-out: IC50): 4.54 µM
- IC50 (FaDu; 72 hours, n=4, read-out: IC50): 11.5 µM
- IC50 (KB; 72 hours, n=4, read-out: IC50): 2 µM
- IC50 (Calu-6; Calu-6, 72 hours, n=4, read-out: IC50): 220 µM
- IC50 (SW620; SW620, 72 hours, n=4, read-out: IC50): 24.4 µM
- IC50 (Caki-1; Caki-1, 72 hours, n=4, read-out: IC50): 13.1 µM
- IC50 (H460; H460, 72 hours, n=4, read-out: IC50): 1.67 µM
- IC50 (HT29; HT29, 72 hours, n=4, read-out: IC50): 48.6 µM
- IC50 (TF1-α; TF1-α, 72 hours, n=4, read-out: IC50): 3.76 µM
- TV (mm^3) D1 ([1]; H460 tumor naked mice): 90.30 ± 5.61 mm^3
- Body weight (g) D1 [1, 2]: 21.1 ± 0.9 g
- Body weight (g) D20 [1, 3]: 17.6 ± 0.7 g
- TV (mm^3) D20 [1, 3]: 972.1 ± 289.5 mm^3
- Body temperature ([1]; H460 tumor naked mice): decreased
- Effect of tumor inhibition ([1]; H460 tumor naked mice): significant effect of tumor inhibition
- Body weight during the whole test ([1]; H460 tumor naked mice, whole test): decreased significantly
- Body weight decrease at the end of the test ([1]; end of the test, H460 tumor naked mice): about 16.7%
- Tumor Weight TW [1, 4]: 0.65 ± 0.23 g
- Tumor Weight Inhibition Rate IR (%) [1, 4]: 44.6%

Compound: O=C(CO)CO [Dihydroxyacetone, 1,3-dihydroxyacetone]
- IC50 (SH-SY5Y; [5]): 1810 µM
- IC50 (BEL-7402; Homo sapiens, Bel-7402, 72 h, read-out: IC50 calculated based on the concentration of dihydroxyacetone): 6820 µM
- IC50 (SMMC-7721; Homo sapiens, SMMC-7721, 72 h, read-out: IC50 calculated based on the concentration of dihydroxyacetone): 5090 µM
- IC50 (SW480; Homo sapiens, SW480, 72 h, read-out: IC50 calculated based on the concentration of dihydroxyacetone): 7950 µM
- IC50 (T24; Homo sapiens, T-24, 72 h, read-out: IC50 calculated based on the concentration of dihydroxyacetone): 7670 µM
- IC50 (A549; Homo sapiens, A549, 72 h, read-out: IC50 calculated based on the concentration of dihydroxyacetone): 4390 µM
- IC50 (TT; Homo sapiens, n=4, read-out: IC50 calculated based on the concentration of dihydroxyacetone): 3620 µM
- IC50 (Jurkat; [5]): 1830 µM
- IC50 (A431; Homo sapiens, A-431, 72 h, read-out: IC50 calculated based on the concentration of dihydroxyacetone): 5640 µM
- IC50 (A375; Homo sapiens, A-375, 72 h, read-out: IC50 calculated based on the concentration of dihydroxyacetone): 6180 µM
- IC50 (A673; Homo sapiens, A673, 72 h, read-out: IC50 calculated based on the concentration of dihydroxyacetone): 3770 µM
- IC50 (HCCLM3; Homo sapiens, HCCLM3, 72 h, read-out: IC50 calculated based on the concentration of dihydroxyacetone): 5480 µM
- IC50 (A2780; Homo sapiens, A2780, 72 h, read-out: IC50 calculated based on the concentration of dihydroxyacetone): 10600 µM
- IC50 (DU145; Homo sapiens, DU-145, 72 h, read-out: IC50 calculated based on the concentration of dihydroxyacetone): 7680 µM
- IC50 (FaDu; [5]): 9420 µM
- IC50 (KB; [5]): 7510 µM
- IC50 (Calu-6; Homo sapiens, Calu-6, 72 h, read-out: IC50 calculated based on the concentration of dihydroxyacetone): 11000 µM
- IC50 (SW620; Homo sapiens, SW-620, 72 h, read-out: IC50 calculated based on the concentration of dihydroxyacetone): 8540 µM
- IC50 (Caki-1; Homo sapiens, CAKI-1, 72 h, read-out: IC50 calculated based on the concentration of dihydroxyacetone): 10000 µM
- IC50 (H460; Homo sapiens, NCI-H460, 72 h, read-out: IC50 calculated based on the concentration of dihydroxyacetone): 3790 µM
- IC50 (HT29; Homo sapiens, HT-29, 72 h, read-out: IC50 calculated based on the concentration of dihydroxyacetone): 4370 µM
- IC50 (TF1-α; Homo sapiens, TF-1, 72 h, read-out: IC50 calculated based on the concentration of dihydroxyacetone): 4890 µM
- TV (mm^3) D1 ([1]; H460 tumor naked mice): 90.47 ± 9.91 mm^3
- Body weight (g) D1 [1, 2]: 21.4 ± 0.7 g
- Body weight (g) D20 [1, 3]: 23.7 ± 1.3 g
- TV (mm^3) D20 [1, 3]: 2300.4 ± 585.1 mm^3
- RTV D20 (relative tumor volume) ([1]; D20, RTV=TVt/TV1, cisplatin 4 mg/kg i.p. once every 5 days, DHA p.o. 0.1 mL/10 g bid): 25.5 ± 6.2
- Effect of tumor inhibition ([1]; H460 tumor naked mice): did not exhibit a significant effect of tumor inhibition
- T/C (%) relative tumor proliferation rate ([1]; final, vs blank control group RTV, cisplatin 4 mg/kg i.p. once every 5 days, DHA p.o. 0.1 mL/10 g bid): 142.0%
- Toxic reaction ([1]; mouse, in vivo): no toxic reaction
- Tumor Weight TW [1, 4]: 1.76 ± 0.44 g
- Tumor Weight Inhibition Rate IR (%) [1, 4]: −50.6%
